Results taken from PubChem BioAssay (NCI).
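Tested at 5 concentrations; 48 h exposure; 96-well plates; endpoints linearly interpolated, else capped at highest concentration. TGI is the concentration that stops growth completely.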

Key:
Test in all cases: DTP human tumour cell line panel, 48 h
HOP-62 NSCLC = tested on: HOP-62 NSCLC
M14 melanoma = tested on: M14 melanoma
SF-539 CNS = tested on: SF-539 CNS
K-562 leukemia = tested on: K-562 leukemia
HCT-116 colon = tested on: HCT-116 colon
786-0 renal = tested on: 786-0 renal
ACHN renal = tested on: ACHN renal
KM12 colon = tested on: KM12 colon
HOP-92 NSCLC = tested on: HOP-92 NSCLC
SF-268 CNS = tested on: SF-268 CNS
UACC-62 melanoma = tested on: UACC-62 melanoma
SNB-19 CNS = tested on: SNB-19 CNS
HT29 colon = tested on: HT29 colon
COLO 205 colon = tested on: COLO 205 colon
UO-31 renal = tested on: UO-31 renal
RPMI-8226 leukemia = tested on: RPMI-8226 leukemia
OVCAR-4 ovarian = tested on: OVCAR-4 ovarian
OVCAR-5 ovarian = tested on: OVCAR-5 ovarian
UACC-257 melanoma = tested on: UACC-257 melanoma
NCI-H23 lung = tested on: NCI-H23 lung
BT-549 breast = tested on: BT-549 breast
NCI-H460 lung = tested on: NCI-H460 lung
OVCAR-8 ovarian = tested on: OVCAR-8 ovarian
SK-MEL-28 melanoma = tested on: SK-MEL-28 melanoma
RXF 393 renal = tested on: RXF 393 renal
OVCAR-3 ovarian = tested on: OVCAR-3 ovarian
EKVX NSCLC = tested on: EKVX NSCLC
A549 NSCLC = tested on: A549 NSCLC
MOLT-4 leukemia = tested on: MOLT-4 leukemia
CAKI-1 renal = tested on: CAKI-1 renal
SR leukemia = tested on: SR leukemia
MDA-MB-231 breast = tested on: MDA-MB-231 breast
HS 578T breast = tested on: HS 578T breast
IGROV1 ovarian = tested on: IGROV1 ovarian
T-47D breast = tested on: T-47D breast
NCI-H226 lung = tested on: NCI-H226 lung
U251 CNS = tested on: U251 CNS
MCF7 breast = tested on: MCF7 breast
SF-295 CNS = tested on: SF-295 CNS
SK-OV-3 ovarian = tested on: SK-OV-3 ovarian
SN12C renal = tested on: SN12C renal
NCI-H522 lung = tested on: NCI-H522 lung
DU-145 prostate = tested on: DU-145 prostate
SNB-75 CNS = tested on: SNB-75 CNS
LOX IMVI melanoma = tested on: LOX IMVI melanoma
MALME-3M melanoma = tested on: MALME-3M melanoma
PC-3 prostate = tested on: PC-3 prostate
SK-MEL-5 melanoma = tested on: SK-MEL-5 melanoma
NCI/ADR-RES ovarian = tested on: NCI/ADR-RES ovarian
A498 renal = tested on: A498 renal
SW-620 colon = tested on: SW-620 colon
TK-10 renal = tested on: TK-10 renal
MDA-MB-435 = tested on: MDA-MB-435
HCC-2998 colon = tested on: HCC-2998 colon
MDA-N = tested on: MDA-N
SK-MEL-2 melanoma = tested on: SK-MEL-2 melanoma
HCT-15 colon = tested on: HCT-15 colon

## N#CC1(C#N)C2=C(CCCC2)NC(c2ccc(Br)cc2)C1(C#N)C#N (configuration not stated)
HOP-62 NSCLC
  TGI: 35.7 µM
M14 melanoma
  TGI: 7.04 µM
SF-539 CNS
  TGI: 31.6 µM
K-562 leukemia
  TGI: 12 µM
HCT-116 colon
  TGI: 4.15 µM
786-0 renal
  TGI: 3.75 µM
ACHN renal
  TGI: 3.88 µM
KM12 colon
  TGI: 29.4 µM
HOP-92 NSCLC
  TGI: 18.9 µM
SF-268 CNS
  TGI: 24.7 µM
UACC-62 melanoma
  TGI: 32.4 µM
SNB-19 CNS
  TGI: 30.1 µM
HT29 colon
  TGI: 10.1 µM
COLO 205 colon
  TGI: 2.58 µM
UO-31 renal
  TGI: 3.03 µM
RPMI-8226 leukemia
  TGI: 15.8 µM
OVCAR-4 ovarian
  TGI: 20.7 µM
OVCAR-5 ovarian
  TGI: 24.9 µM
UACC-257 melanoma
  TGI: 11.5 µM
NCI-H23 lung
  TGI: 30.3 µM
BT-549 breast
  TGI: 26.9 µM
NCI-H460 lung
  TGI: 63.6 µM
OVCAR-8 ovarian
  TGI: 11.5 µM
SK-MEL-28 melanoma
  TGI: 25.9 µM
RXF 393 renal
  TGI: 6.15 µM
OVCAR-3 ovarian
  TGI: 18.2 µM
EKVX NSCLC
  TGI: 25.3 µM
A549 NSCLC
  TGI: 30.9 µM
MOLT-4 leukemia
  TGI: 15.7 µM
CAKI-1 renal
  TGI: 4.99 µM
SR leukemia
  TGI: 5.56 µM
MDA-MB-231 breast
  TGI: 23.9 µM
HS 578T breast
  TGI: 44.6 µM
IGROV1 ovarian
  TGI: 9.24 µM
T-47D breast
  TGI: 5.41 µM
NCI-H226 lung
  TGI: 39 µM
U251 CNS
  TGI: 26.8 µM
MCF7 breast
  TGI: 19.9 µM
SF-295 CNS
  TGI: 56.5 µM
SK-OV-3 ovarian
  TGI: > 56.4 µM
SN12C renal
  TGI: 7.06 µM
NCI-H522 lung
  TGI: 3.06 µM
DU-145 prostate
  TGI: 25.1 µM
SNB-75 CNS
  TGI: 30.8 µM
LOX IMVI melanoma
  TGI: 6.93 µM
MALME-3M melanoma
  TGI: 3.83 µM
PC-3 prostate
  TGI: 26.8 µM
SK-MEL-5 melanoma
  TGI: 28.8 µM
NCI/ADR-RES ovarian
  TGI: > 100 µM
A498 renal
  TGI: 37.5 µM
SW-620 colon
  TGI: 2.88 µM
TK-10 renal
  TGI: 16 µM
MDA-MB-435
  TGI: 9.05 µM
HCC-2998 colon
  TGI: 46.4 µM
MDA-N
  TGI: 14 µM
SK-MEL-2 melanoma
  TGI: 34.1 µM
HCT-15 colon
  TGI: 9.85 µM
